# Laboratory results: patent US20120115801A1, “METHOD FOR OBTAINING A STABLE DISPERSION OF BENZOYL PEROXIDE” (Dow Pharmaceutical Sciences, Inc., priority 2008, published 2012)
# Key:
# [1] = visual inspection of the benzoyl peroxide suspension and wet-milling (Gaulin Mill) to a micro-suspension; settings: for stability of micro-suspension after wet-milling: Gaulin Mill, no surfactants
# Procedure: A suspension was prepared containing 33.2% w/w hydrous benzoyl peroxide utilizing a dispersing fluid containing 34.0% w/w propylene glycol and 66% w/w water. Into a 200 gallon stainless steel tank, 175 kg of purified water and 90 kg of propylene glycol were combined. The combination was agitated with a propeller mixer to form a mixture. While mixing, 132 kg of hydrous benzoyl peroxide. (74.5% benzoyl peroxide) powder was added. Mixing continued at 1024 rpm for about 20 minutes to wet and disperse the benzoyl peroxide powder and to obtain a benzoyl peroxide suspension.
# The suspension was passed through a Gaulin Mill for micronization using a wet-milling method. […] The propylene glycol content was diluted upon incorporation of benzoyl peroxide suspension into the final topical dosage form to make the 6.26% benzoyl peroxide gel.
# A suspension was prepared containing 24.8% w/w hydrous benzoyl peroxide utilizing a dispersing fluid containing 9.4% w/w propylene glycol and 90.6% w/w water. Into a stainless steel tank, 36 kg of purified water and 3.75 kg of propylene glycol were combined. The combination was agitated with a propeller mixer to form a mixture. While mixing, 13.12 kg of hydrous benzoyl peroxide (74.5% benzoyl peroxide) was added. Mixing continued at 1450 rpm for about 10 minutes to wet and disperse the benzoyl peroxide powder and to obtain a benzoyl peroxide suspension.
# This suspension was transferred to a Gaulin Mill for micronization using a wet-milling method.
# A suspension was prepared containing 24.7% benzoyl peroxide (hydrous) utilizing a dispersing fluid containing 47.6% w/w propylene glycol and 52.4% w/w water. Into a stainless steel tank, 27.5 kg of purified water and 25 kg of propylene glycol were combined. The combination was agitated with a propeller mixer to form a mixture. While mixing, 17.19 kg of hydrous benzoyl peroxide (74.5% benzoyl peroxide) was added. Mixing continued at 858 rpm for about 1 hour to wet and disperse the benzoyl peroxide powder and to obtain a benzoyl peroxide suspension.
# This suspension was passed through a Gaulin Mill for micronization using a wet-milling method. […] The propylene glycol content was diluted upon combining the benzoyl peroxide suspension with the clindamycin solution to form the final pharmaceutical product.
# [2] = benzoyl peroxide wettability study; assay type: physicochemical; settings: 1.5 g powder, agitated as in Example 1
# Procedure: A benzoyl peroxide wettability study was conducted as follows. 1.5 grams of a hydrous benzoyl peroxide powder was spread on the surface of each of three test fluids contained in glass beakers having about a 5 cm diameter, containing either 30 ml of purified water (Sample A), 30 ml of a fluid composed of 5% propylene glycol and 95% purified water (Sample B), or 30 ml of a fluid composed of 50% propylene glycol and 50% purified water (Sample C). At the bottom of each beaker was a 12 mm×8 mm magnetic stir bar. Each of the fluids, with the benzoyl peroxide powder on the surface, was stirred at 1200 rpm. After 5 and 10 minutes of stirring, the samples were visually inspected for the degree of wetting of the benzoyl peroxide. Good wetting was evidenced by visual determination of little or no agglomeration and/or crusting. It was determined that the wetting of the benzoyl peroxide in Sample A was poor, with little or no visual evidence of wetting. The wetting of the benzoyl peroxide in Sample B was determined to be good, with visual evidence of wetting of a significant portion of the benzoyl peroxide powder. The wetting of the benzoyl peroxide in Sample C was determined to be very good, with visual evidence of wetting of the majority of the benzoyl peroxide powder.
# (§1) The wetting study of Example 1 was repeated utilizing 1.5 grams of benzoyl peroxide powder and 30 ml of a fluid composed of 7.5% ethanol and 92.5% water. The fluid with the benzoyl peroxide powder was agitated as described in Example 1. The wetting of the benzoyl peroxide in the fluid was determined to be very good, with visual evidence of wetting of the majority, about 90%, of the benzoyl peroxide powder.
# as §1, with “20% polyethylene glycol (PEG 200)” for “7.5% ethanol”, “80%” for “92.5%”
# [3] = 30 ml fluid of 7.5% ethanol and 92.5% water
# [4] = 30 ml fluid of 20% polyethylene glycol (PEG 200) and 80% water
compound,measurement,setting,value
O=C(OOC(=O)c1ccccc1)c1ccccc1 [benzoyl peroxide],stability of micro-suspension after wet-milling,[1]; Example 2: 33.2% w/w hydrous benzoyl peroxide in 34.0% w/w propylene glycol / 66% w/w water,stable
same,appearance of suspension upon visual inspection,"[1]; Example 2: 33.2% w/w hydrous benzoyl peroxide in 34.0% w/w propylene glycol / 66% w/w water, mixed 1024 rpm about 20 minutes",smooth and free of lumps
same,stability of micro-suspension after wet-milling,[1]; Example 3: 24.8% w/w hydrous benzoyl peroxide in 9.4% w/w propylene glycol / 90.6% w/w water,stable
same,appearance of suspension upon visual inspection,"[1]; Example 3: 24.8% w/w hydrous benzoyl peroxide in 9.4% w/w propylene glycol / 90.6% w/w water, mixed 1450 rpm about 10 minutes",smooth and free of lumps
same,stability of micro-suspension after wet-milling,[1]; Example 4: 24.7% benzoyl peroxide (hydrous) in 47.6% w/w propylene glycol / 52.4% w/w water,stable
same,appearance of suspension upon visual observation,"[1]; Example 4: 24.7% benzoyl peroxide (hydrous) in 47.6% w/w propylene glycol / 52.4% w/w water, mixed 858 rpm about 1 hour",smooth and free of lumps
same,portion of the benzoyl peroxide powder wetted (visual evidence),[2]; [3],about 90%
same,wetting of the benzoyl peroxide in the fluid (visual),[2]; [3],very good
same,portion of the benzoyl peroxide powder wetted (visual evidence),[2]; [4],about 90%
same,wetting of the benzoyl peroxide in the fluid (visual),[2]; [4],very good
